In US7358248B2, “Substituted amino carboxylic acids” (The Institute for Pharmaceutical Discovery LLC, priority 2003, dated 2008) one finds melting point data, which are given here for 24 molecules.

Molecule `CC(C)(C)OC(=O)N[C@@H](CSCc1ccc(-c2ccc(-c3ccc4c(c3)OCO4)cc2)cc1)C(=O)O` (stereo in doubt) [Example 101, 3-(4′-Benzo[1,3]dioxol-5-yl-biphenyl-4-ylmethylsulfanyl)-2-tert-butoxycarbonylamino-propionic acid] yielded a melting point of 178 to 180 °C.
In the case of `CC(C)(C)OC(=O)N[C@@H](C[S+]([O-])Cc1ccc(-c2ccc(-n3ccc4ccccc43)cc2)cc1)C(=O)O` (stereo partly drawn) [Example 7, (2R)-tert-Butoxycarbonylamino-3-(4′-indol-1-ylbiphen-4-ylmethylsulfinyl)-propionic acid] it was 169 to 170 °C; in that of `O=C(Cc1cccc([N+](=O)[O-])c1)N[C@@H](CSCc1ccc(-c2ccc(-n3ccc4ccccc43)cc2)cc1)C(=O)O` [Example 10, (2R)-3-(4′-Indol-1-ylbiphen-4-ylmethylsulfanyl)-2-[2-(3-nitrophenyl)acetylamino]-propionic acid], 94 °C; in that of `COC(=O)N[C@@H](CSCc1ccc(-c2ccc(-n3ccc4ccccc43)cc2)cc1)C(=O)O` [Example 12, (2R)-3-(4′-Indol-1-ylbiphen-4-ylmethylsulfanyl)-2-methoxycarbonylamino-propionic acid], 81 to 82 °C.
As for `CC(C)COC(=O)N[C@@H](CSCc1ccc(-c2ccc(-n3ccc4ccccc43)cc2)cc1)C(=O)O` [Example 13, (2R)-3-(4′-Indol-1-ylbiphen-4-ylmethylsulfanyl)-2-isobutoxycarbonylamino-propionic acid], the melting point is 85 to 86 °C.
To `O=C(O)[C@H](CSCc1ccc(-c2ccc(-n3ccc4ccccc43)cc2)cc1)NC(=O)N1CCOCC1` [Example 14, (2R)-3-(4′-Indol-1-ylbiphen-4-ylmethylsulfanyl)-2-[(morpholine-4-carbonyl)-amino]-propionic acid] belongs 195 °C (dec.).
On to `O=C(Cc1cccc([N+](=O)[O-])c1)N[C@@H](C[S+]([O-])Cc1ccc(-c2ccc(-n3ccc4ccccc43)cc2)cc1)C(=O)O` (stereo partly drawn) [Example 17, (2R)-3-(4′-Indol-1-ylbiphen-4-ylmethylsulfinyl)-2-[2-(3-nitrophenyl)acetylamino]-propionic acid], for which the melting point is 197 to 198 °C.
To `CC(C)(C)OC(=O)N[C@@H](CSCc1ccc(-c2ccc(-c3c(Cc4ccccc4)oc4ccccc34)cc2)cc1)C(=O)O` [Example 66, (2R)-3-[4′-(2-benzylbenzofuran-3-yl)biphen-4-ylmethylsulfanyl]-2-tert-butoxy-carbonylamino-propionic acid] belongs 89 to 90 °C; to `CC(C)(C)OC(=O)N[C@@H](C[S+]([O-])Cc1ccc(-c2ccc(-c3c(Cc4ccccc4)oc4ccccc34)cc2)cc1)C(=O)O` (stereo partly drawn) [Example 67, (2R,4RS)-3-[4′-(2-benzylbenzofuran-3-yl)biphen-4-ylmethylsulfinyl]-2-tert-butoxycarbonylaminopropionic acid], 195 to 196 °C; to `CC(C)(C)OC(=O)N[C@@H](CS(=O)(=O)Cc1ccc(-c2ccc(-c3c(Cc4ccccc4)oc4ccccc34)cc2)cc1)C(=O)O` [Example 68, (2R)-3-[4′-(2-benzylbenzofuran-3-yl)biphen-4-ylmethylsulfonyl]-2-tert-butoxycarbonylaminopropionic acid], 202 to 203 °C.
To `O=C(N[C@@H](CSCc1ccc(-c2ccc(-c3c(Cc4ccccc4)oc4ccccc34)cc2)cc1)C(=O)O)c1ccccc1` [Example 70, (2R)-2-Benzoylamino-3-[4′-(2-benzylbenzofuran-3-yl)biphen-4-ylmethylsulfanyl]-propionic acid] belongs 138 to 139 °C; to `O=C(Cc1ccccc1)N[C@@H](CSCc1ccc(-c2ccc(-c3c(Cc4ccccc4)oc4ccccc34)cc2)cc1)C(=O)O` [Example 71, (2R)-2-Phenylacetylamino-3-[4′-(2-benzylbenzofuran-3-yl)biphen-4-ylmethyl-sulfanyl]-propionic acid], 77 to 78 °C.
`O=C(N[C@@H](CSCc1ccc(-c2ccc(-c3c(Cc4ccccc4)oc4ccccc34)cc2)cc1)C(=O)O)c1ccc2nc[nH]c2c1` [Example 73]: the melting point is 149 to 150 °C.
Take `O=C(Cc1ccc(F)cc1)N[C@@H](CSCc1ccc(-c2ccc(-c3c(Cc4ccccc4)oc4ccccc34)cc2)cc1)C(=O)O` [Example 74, (2R)-2-(4-Fluorophenylacetylamino)-3-[4′-(2-benzylbenzofuran-3-yl)biphen-4-ylmethylsulfanyl]-propionic acid]: the melting point fell in the range of 82 to 84 °C.
In the case of `O=C(Cc1cccc([N+](=O)[O-])c1)N[C@@H](CSCc1ccc(-c2ccc(-c3c(Cc4ccccc4)oc4ccccc34)cc2)cc1)C(=O)O` [Example 75, (2R)-2-(3-Nitrophenylacetylamino)-3-[4′-(2-benzylbenzofuran-3-yl)biphen-4-ylmethylsulfanyl]-propionic acid] it was 108 to 109 °C; in that of `O=C(Cc1ccc([N+](=O)[O-])cc1)N[C@@H](CSCc1ccc(-c2ccc(-c3c(Cc4ccccc4)oc4ccccc34)cc2)cc1)C(=O)O` [Example 77, (2R)-2-(4-Nitrophenylacetylamino)-3-[4′-(2-benzylbenzofuran-3-yl)biphen-4-ylmethylsulfanyl]-propionic acid], 102 to 103 °C; in that of `O=C(Cc1ccccc1[N+](=O)[O-])N[C@@H](CSCc1ccc(-c2ccc(-c3c(Cc4ccccc4)oc4ccccc34)cc2)cc1)C(=O)O` [Example 78, (2R)-2-(2-Nitrophenylacetylamino)-3-[4′-(2-benzylbenzofuran-3-yl)biphen-4-ylmethylsulfanyl]-propionic acid], 189 to 191 °C.
To `O=C(Cc1ccc(O)cc1)N[C@@H](CSCc1ccc(-c2ccc(-c3c(Cc4ccccc4)oc4ccccc34)cc2)cc1)C(=O)O` [Example 79, (2R)-2-(4-Hydroxyphenylacetylamino)-3-[4′-(2-benzylbenzofuran-3-yl)biphen-4-ylmethylsulfanyl]-propionic acid] belongs 148 to 149 °C; to `CC(=O)N[C@@H](CSCc1ccc(-c2ccc(-c3c(Cc4ccccc4)oc4ccccc34)cc2)cc1)C(=O)O` [Example 80, (2R)-2-Acetylamino-3-[4′-(2-benzylbenzofuran-3-yl)biphen-4-ylmethylsulfanyl]-propionic acid], 131 to 132 °C.
To `COc1ccc(CC(=O)N[C@@H](CSCc2ccc(-c3ccc(-c4c(Cc5ccccc5)oc5ccccc45)cc3)cc2)C(=O)O)cc1` [Example 81, (2R)-2-(4-Methoxyphenylacetylamino)-3-[4′-(2-benzylbenzofuran-3-yl)biphen-4-ylmethylsulfanyl]-propionic acid] belongs 59 to 60 °C; to `Nc1ccc(CC(=O)N[C@@H](CSCc2ccc(-c3ccc(-c4c(Cc5ccccc5)oc5ccccc45)cc3)cc2)C(=O)O)cc1` [Example 82, (2R)-2-(4-Aminophenylacetylamino)-3-[4′-(2-benzylbenzofuran-3-yl)biphen-4-ylmethylsulfanyl]-propionic acid], 170 to 172 °C; to `CC(C)(C)OC(=O)NC(CSCc1ccc(-c2nc(-c3ccccc3)cc(-c3ccccc3)n2)cc1)C(=O)O` (stereo not drawn) [Example 93, 2-tert-Butoxy carbonylamino-3-[4-(4,6-diphenylpyrimidin-2-yl)-benzylsulfanyl]propionic acid], 250 °C (dec.).
Molecule `CC(=O)NC(CSCc1ccc(-c2nc(-c3ccccc3)cc(-c3ccccc3)n2)cc1)C(=O)O` (stereo not drawn) [Example 95, 2-Acetylamino-3-[4-(4,6-diphenyl-pyrimidin-2-yl)-benzylsulfanyl]-propionic acid] had a melting point of 223 to 226 °C.
To `CC(C)(C)OC(=O)N[C@@H](CSCc1ccc(-c2ccc(-c3cccc4c3sc3ccccc34)cc2)cc1)C(=O)O` [Example 107, 2-tert-Butoxycarbonylamino-3-(4′-dibenzothiophen-4-yl-biphenyl-4-ylmethyl-sufanyl)-propionic acid] belongs 108 to 110 °C.
